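Each compound was tested at five concentrations against cells in 96-well plates for 48 hours. GI50 = concentration required for 50% inhibition of growth. TGI marks complete inhibition of growth.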
How the values were obtained:
Test in all cases: NCI anticancer screen, dose series, 48 h
SN12C renal = system: SN12C renal
786-0 renal = system: 786-0 renal
HOP-92 NSCLC = system: HOP-92 NSCLC
HS 578T breast = system: HS 578T breast
HCT-15 colon = system: HCT-15 colon
MDA-MB-468 breast = system: MDA-MB-468 breast
A549 NSCLC = system: A549 NSCLC
U251 CNS = system: U251 CNS
NCI-H460 lung = system: NCI-H460 lung
SF-539 CNS = system: SF-539 CNS
A498 renal = system: A498 renal
T-47D breast = system: T-47D breast
DU-145 prostate = system: DU-145 prostate
HCC-2998 colon = system: HCC-2998 colon
OVCAR-3 ovarian = system: OVCAR-3 ovarian
KM12 colon = system: KM12 colon
SK-MEL-5 melanoma = system: SK-MEL-5 melanoma
BT-549 breast = system: BT-549 breast
TK-10 renal = system: TK-10 renal
COLO 205 colon = system: COLO 205 colon
SNB-19 CNS = system: SNB-19 CNS
OVCAR-4 ovarian = system: OVCAR-4 ovarian
MCF7 breast = system: MCF7 breast
UACC-62 melanoma = system: UACC-62 melanoma
EKVX NSCLC = system: EKVX NSCLC
CCRF-CEM leukemia = system: CCRF-CEM leukemia
HOP-62 NSCLC = system: HOP-62 NSCLC
MALME-3M melanoma = system: MALME-3M melanoma
LOX IMVI melanoma = system: LOX IMVI melanoma
SK-MEL-28 melanoma = system: SK-MEL-28 melanoma
OVCAR-8 ovarian = system: OVCAR-8 ovarian
RXF 393 renal = system: RXF 393 renal
SF-268 CNS = system: SF-268 CNS
M14 melanoma = system: M14 melanoma
CAKI-1 renal = system: CAKI-1 renal
NCI-H23 lung = system: NCI-H23 lung
RPMI-8226 leukemia = system: RPMI-8226 leukemia
K-562 leukemia = system: K-562 leukemia
SR leukemia = system: SR leukemia
MOLT-4 leukemia = system: MOLT-4 leukemia
MDA-MB-435 = system: MDA-MB-435
IGROV1 ovarian = system: IGROV1 ovarian
NCI-H522 lung = system: NCI-H522 lung
ACHN renal = system: ACHN renal
NCI/ADR-RES ovarian = system: NCI/ADR-RES ovarian
SF-295 CNS = system: SF-295 CNS
UACC-257 melanoma = system: UACC-257 melanoma
HT29 colon = system: HT29 colon
PC-3 prostate = system: PC-3 prostate
OVCAR-5 ovarian = system: OVCAR-5 ovarian
SK-OV-3 ovarian = system: SK-OV-3 ovarian
HL-60(TB) leukemia = system: HL-60(TB) leukemia
HCT-116 colon = system: HCT-116 colon
SW-620 colon = system: SW-620 colon
NCI-H226 lung = system: NCI-H226 lung

COc1ccc(C(=O)Nc2ccc(-c3ccc4c(c3)NC(=O)/C4=C\c3ccc[nH]3)cc2)cc1
GI50 (SN12C renal): 68.9 µM | TGI (SN12C renal): > 100 µM | GI50 (786-0 renal): 21.8 µM | TGI (786-0 renal): 71.9 µM | GI50 (HOP-92 NSCLC): 42.8 µM | TGI (HOP-92 NSCLC): > 100 µM | GI50 (HS 578T breast): 5.82 µM | TGI (HS 578T breast): 49.2 µM | GI50 (HCT-15 colon): 23 µM | TGI (HCT-15 colon): > 100 µM | GI50 (MDA-MB-468 breast): 243 nM | TGI (MDA-MB-468 breast): 1710 nM | GI50 (A549 NSCLC): 15.2 µM | TGI (A549 NSCLC): > 100 µM | GI50 (U251 CNS): 5.29 µM | TGI (U251 CNS): 18.9 µM | GI50 (NCI-H460 lung): 12.7 µM | TGI (NCI-H460 lung): > 100 µM | GI50 (SF-539 CNS): > 100 µM | TGI (SF-539 CNS): > 100 µM | GI50 (A498 renal): > 100 µM | TGI (A498 renal): > 100 µM | GI50 (T-47D breast): 3.17 µM | TGI (T-47D breast): 41.2 µM | GI50 (DU-145 prostate): 8.3 µM | TGI (DU-145 prostate): > 100 µM | GI50 (HCC-2998 colon): 9.38 µM | TGI (HCC-2998 colon): > 100 µM | GI50 (OVCAR-3 ovarian): 47.1 µM | TGI (OVCAR-3 ovarian): > 100 µM | GI50 (KM12 colon): 53.7 µM | TGI (KM12 colon): > 100 µM | GI50 (SK-MEL-5 melanoma): > 100 µM | TGI (SK-MEL-5 melanoma): > 100 µM | GI50 (BT-549 breast): 33.4 µM | TGI (BT-549 breast): > 100 µM | GI50 (TK-10 renal): 19 µM | TGI (TK-10 renal): > 100 µM | GI50 (COLO 205 colon): 3.36 µM | TGI (COLO 205 colon): 12.1 µM | GI50 (SNB-19 CNS): 30.9 µM | TGI (SNB-19 CNS): > 100 µM | GI50 (OVCAR-4 ovarian): 3.55 µM | TGI (OVCAR-4 ovarian): 23.2 µM | GI50 (MCF7 breast): 372 nM | TGI (MCF7 breast): > 100 µM | GI50 (UACC-62 melanoma): 20.5 µM | TGI (UACC-62 melanoma): > 100 µM | GI50 (EKVX NSCLC): 2460 nM | TGI (EKVX NSCLC): > 100 µM | GI50 (CCRF-CEM leukemia): > 100 µM | TGI (CCRF-CEM leukemia): > 100 µM | GI50 (HOP-62 NSCLC): 3.76 µM | TGI (HOP-62 NSCLC): 13.5 µM | GI50 (MALME-3M melanoma): 13.4 µM | TGI (MALME-3M melanoma): > 100 µM | GI50 (LOX IMVI melanoma): 7.29 µM | TGI (LOX IMVI melanoma): > 100 µM | GI50 (SK-MEL-28 melanoma): 79.6 µM | TGI (SK-MEL-28 melanoma): > 100 µM | GI50 (OVCAR-8 ovarian): 2950 nM | TGI (OVCAR-8 ovarian): 10.3 µM | GI50 (RXF 393 renal): 8.74 µM | TGI (RXF 393 renal): 50.8 µM | GI50 (SF-268 CNS): 28.7 µM | TGI (SF-268 CNS): > 100 µM | GI50 (M14 melanoma): 7.15 µM | TGI (M14 melanoma): > 100 µM | GI50 (CAKI-1 renal): > 100 µM | TGI (CAKI-1 renal): > 100 µM | GI50 (NCI-H23 lung): 12.4 µM | TGI (NCI-H23 lung): > 100 µM | GI50 (RPMI-8226 leukemia): 38.4 µM | TGI (RPMI-8226 leukemia): > 100 µM | GI50 (K-562 leukemia): 25.2 µM | TGI (K-562 leukemia): > 100 µM | GI50 (SR leukemia): 13.4 µM | TGI (SR leukemia): > 100 µM | GI50 (MOLT-4 leukemia): 19.4 µM | TGI (MOLT-4 leukemia): > 100 µM | GI50 (MDA-MB-435): > 100 µM | TGI (MDA-MB-435): > 100 µM | GI50 (IGROV1 ovarian): 37.6 µM | TGI (IGROV1 ovarian): > 100 µM | GI50 (NCI-H522 lung): 17 µM | TGI (NCI-H522 lung): 91.3 µM | GI50 (ACHN renal): 48.2 µM | TGI (ACHN renal): > 100 µM | GI50 (NCI/ADR-RES ovarian): 3.84 µM | TGI (NCI/ADR-RES ovarian): 16.3 µM | GI50 (SF-295 CNS): 13.9 µM | TGI (SF-295 CNS): 62.4 µM | GI50 (UACC-257 melanoma): 9.07 µM | TGI (UACC-257 melanoma): > 100 µM | GI50 (HT29 colon): 4.23 µM | TGI (HT29 colon): 19.8 µM | GI50 (PC-3 prostate): 27.7 µM | TGI (PC-3 prostate): > 100 µM | GI50 (OVCAR-5 ovarian): 30.8 µM | TGI (OVCAR-5 ovarian): > 100 µM | GI50 (SK-OV-3 ovarian): > 100 µM | TGI (SK-OV-3 ovarian): > 100 µM | GI50 (HL-60(TB) leukemia): 32.4 µM | TGI (HL-60(TB) leukemia): > 100 µM | GI50 (HCT-116 colon): 15.7 µM | TGI (HCT-116 colon): > 100 µM | GI50 (SW-620 colon): 8.39 µM | TGI (SW-620 colon): > 100 µM | GI50 (NCI-H226 lung): 4.08 µM | TGI (NCI-H226 lung): > 100 µM
